In PMC9571063 (Molecules, 2022):

Experiments:
Test in all cases: KINOMEscan
SYK = target: T1, SYK (Homo sapiens, UniProt P43405); type: binding; details: read-out: Percent Control
T1 construct: purchased Eurofins DiscoverX KINOMEscan (scanMAX 468)

RIPK4 = target: T2, RIPK4 (Homo sapiens, UniProt P57078); type: binding; details: read-out: Percent Control
T2 construct: purchased Eurofins DiscoverX KINOMEscan (scanMAX 468)

FLT3(D835Y) = target: T3, FLT3(D835Y) (Homo sapiens, UniProt P36888, D835Y); type: binding; details: read-out: Percent Control
T3 construct: purchased Eurofins DiscoverX KINOMEscan (scanMAX 468)

NDR2 = target: T4, NDR2 (Homo sapiens, UniProt Q9Y2H1); type: binding; details: read-out: Percent Control
T4 construct: purchased Eurofins DiscoverX KINOMEscan (scanMAX 468)

DCAMKL1 = target: T5, DCAMKL1 (Homo sapiens, UniProt O15075); type: binding; details: read-out: Percent Control
T5 construct: purchased Eurofins DiscoverX KINOMEscan (scanMAX 468)
T5 sequence (O15075 whole entry): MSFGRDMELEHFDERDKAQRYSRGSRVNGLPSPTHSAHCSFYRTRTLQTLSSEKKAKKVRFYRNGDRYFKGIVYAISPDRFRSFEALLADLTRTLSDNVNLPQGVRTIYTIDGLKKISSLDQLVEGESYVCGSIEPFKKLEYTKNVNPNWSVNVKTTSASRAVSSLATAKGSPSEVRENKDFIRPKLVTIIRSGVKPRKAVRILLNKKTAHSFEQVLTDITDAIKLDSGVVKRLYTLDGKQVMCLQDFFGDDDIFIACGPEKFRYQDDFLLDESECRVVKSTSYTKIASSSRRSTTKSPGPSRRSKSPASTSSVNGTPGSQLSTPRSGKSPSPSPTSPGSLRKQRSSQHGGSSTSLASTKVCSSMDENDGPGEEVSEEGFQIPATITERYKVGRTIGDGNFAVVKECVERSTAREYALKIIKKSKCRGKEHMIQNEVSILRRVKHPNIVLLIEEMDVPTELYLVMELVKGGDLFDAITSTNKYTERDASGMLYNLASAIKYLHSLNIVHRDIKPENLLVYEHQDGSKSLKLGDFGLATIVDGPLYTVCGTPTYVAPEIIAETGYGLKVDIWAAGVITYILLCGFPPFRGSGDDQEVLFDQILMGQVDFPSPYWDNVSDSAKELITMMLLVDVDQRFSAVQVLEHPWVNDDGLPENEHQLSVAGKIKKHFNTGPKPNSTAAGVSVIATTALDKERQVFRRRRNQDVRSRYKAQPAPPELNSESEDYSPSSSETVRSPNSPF

MST1R = target: T6, MST1R (Homo sapiens, UniProt Q04912); type: binding; details: read-out: Percent Control
T6 construct: purchased Eurofins DiscoverX KINOMEscan (scanMAX 468)

PIM2 = target: T7, PIM2 (Homo sapiens, UniProt Q9P1W9); type: binding; details: read-out: Percent Control
T7 construct: purchased Eurofins DiscoverX KINOMEscan (scanMAX 468)

PCTK3 = target: T8, PCTK3 (Homo sapiens, UniProt Q07002); type: binding; details: read-out: Percent Control
T8 construct: purchased Eurofins DiscoverX KINOMEscan (scanMAX 468)
T8 sequence (Q07002 whole entry): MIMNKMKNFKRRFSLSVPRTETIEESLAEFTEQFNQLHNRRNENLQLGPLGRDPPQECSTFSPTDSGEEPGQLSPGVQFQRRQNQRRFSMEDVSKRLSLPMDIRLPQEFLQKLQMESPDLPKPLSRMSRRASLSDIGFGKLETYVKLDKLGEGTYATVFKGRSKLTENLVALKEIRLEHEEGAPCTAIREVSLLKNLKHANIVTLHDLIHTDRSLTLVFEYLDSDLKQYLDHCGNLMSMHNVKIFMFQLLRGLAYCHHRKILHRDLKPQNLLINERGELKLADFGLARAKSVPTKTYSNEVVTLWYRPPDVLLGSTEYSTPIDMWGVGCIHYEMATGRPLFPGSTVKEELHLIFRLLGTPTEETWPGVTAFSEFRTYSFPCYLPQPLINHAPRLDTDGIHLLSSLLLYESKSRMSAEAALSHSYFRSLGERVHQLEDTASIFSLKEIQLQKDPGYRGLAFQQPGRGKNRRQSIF

EGFR(G719C) = target: T9, EGFR(G719C) (Homo sapiens, UniProt P00533, G719C); type: binding; details: read-out: Percent Control
T9 construct: purchased Eurofins DiscoverX KINOMEscan (scanMAX 468)
T9 sequence (P00533 25-1210 G719C): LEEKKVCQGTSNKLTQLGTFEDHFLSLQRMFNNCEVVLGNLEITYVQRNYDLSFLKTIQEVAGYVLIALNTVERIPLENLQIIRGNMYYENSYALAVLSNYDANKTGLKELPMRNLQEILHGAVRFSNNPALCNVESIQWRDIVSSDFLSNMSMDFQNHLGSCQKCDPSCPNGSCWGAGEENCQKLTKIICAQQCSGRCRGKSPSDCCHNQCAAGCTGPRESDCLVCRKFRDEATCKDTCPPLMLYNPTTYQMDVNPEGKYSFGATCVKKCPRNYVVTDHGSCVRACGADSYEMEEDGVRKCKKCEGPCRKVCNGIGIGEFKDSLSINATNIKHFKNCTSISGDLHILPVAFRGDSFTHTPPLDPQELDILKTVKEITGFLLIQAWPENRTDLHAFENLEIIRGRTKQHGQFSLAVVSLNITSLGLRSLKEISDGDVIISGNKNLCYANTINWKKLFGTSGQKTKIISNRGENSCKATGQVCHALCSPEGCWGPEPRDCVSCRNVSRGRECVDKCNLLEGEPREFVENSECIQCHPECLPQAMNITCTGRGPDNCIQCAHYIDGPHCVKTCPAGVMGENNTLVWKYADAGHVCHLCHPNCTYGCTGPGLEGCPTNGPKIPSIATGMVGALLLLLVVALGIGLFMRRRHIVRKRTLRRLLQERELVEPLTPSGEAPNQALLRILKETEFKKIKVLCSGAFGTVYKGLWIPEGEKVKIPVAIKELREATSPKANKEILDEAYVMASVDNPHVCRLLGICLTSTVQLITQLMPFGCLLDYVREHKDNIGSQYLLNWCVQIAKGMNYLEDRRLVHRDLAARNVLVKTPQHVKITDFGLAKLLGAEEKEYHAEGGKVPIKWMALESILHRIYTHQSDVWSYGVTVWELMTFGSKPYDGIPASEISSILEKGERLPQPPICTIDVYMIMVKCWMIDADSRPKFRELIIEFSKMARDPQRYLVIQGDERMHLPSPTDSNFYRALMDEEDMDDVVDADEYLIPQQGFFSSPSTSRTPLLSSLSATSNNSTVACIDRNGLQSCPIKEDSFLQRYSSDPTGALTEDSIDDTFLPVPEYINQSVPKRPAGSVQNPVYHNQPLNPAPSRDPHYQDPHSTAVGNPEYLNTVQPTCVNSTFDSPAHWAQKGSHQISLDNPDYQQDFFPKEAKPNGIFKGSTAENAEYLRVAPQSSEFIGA

PIP5K2C = target: T10, PIP5K2C (Homo sapiens, UniProt Q8TBX8); type: binding; details: read-out: Percent Control
T10 construct: purchased Eurofins DiscoverX KINOMEscan (scanMAX 468)

MEK4 = target: T11, MEK4 (Homo sapiens, UniProt P45985); type: binding; details: read-out: Percent Control
T11 construct: purchased Eurofins DiscoverX KINOMEscan (scanMAX 468)

IRAK4 = target: T12, IRAK4 (Homo sapiens, UniProt Q9NWZ3); type: binding; details: read-out: Percent Control
T12 construct: purchased Eurofins DiscoverX KINOMEscan (scanMAX 468)

CDK8 = target: T13, CDK8 (Homo sapiens, UniProt P49336); type: binding; details: read-out: Percent Control
T13 construct: purchased Eurofins DiscoverX KINOMEscan (scanMAX 468)

PCTK2 = target: T14, PCTK2 (Homo sapiens, UniProt Q00537); type: binding; details: read-out: Percent Control
T14 construct: purchased Eurofins DiscoverX KINOMEscan (scanMAX 468)

ICK = target: T15, ICK (Homo sapiens, UniProt Q9UPZ9); type: binding; details: read-out: Percent Control
T15 construct: purchased Eurofins DiscoverX KINOMEscan (scanMAX 468)
T15 sequence (Q9UPZ9 whole entry): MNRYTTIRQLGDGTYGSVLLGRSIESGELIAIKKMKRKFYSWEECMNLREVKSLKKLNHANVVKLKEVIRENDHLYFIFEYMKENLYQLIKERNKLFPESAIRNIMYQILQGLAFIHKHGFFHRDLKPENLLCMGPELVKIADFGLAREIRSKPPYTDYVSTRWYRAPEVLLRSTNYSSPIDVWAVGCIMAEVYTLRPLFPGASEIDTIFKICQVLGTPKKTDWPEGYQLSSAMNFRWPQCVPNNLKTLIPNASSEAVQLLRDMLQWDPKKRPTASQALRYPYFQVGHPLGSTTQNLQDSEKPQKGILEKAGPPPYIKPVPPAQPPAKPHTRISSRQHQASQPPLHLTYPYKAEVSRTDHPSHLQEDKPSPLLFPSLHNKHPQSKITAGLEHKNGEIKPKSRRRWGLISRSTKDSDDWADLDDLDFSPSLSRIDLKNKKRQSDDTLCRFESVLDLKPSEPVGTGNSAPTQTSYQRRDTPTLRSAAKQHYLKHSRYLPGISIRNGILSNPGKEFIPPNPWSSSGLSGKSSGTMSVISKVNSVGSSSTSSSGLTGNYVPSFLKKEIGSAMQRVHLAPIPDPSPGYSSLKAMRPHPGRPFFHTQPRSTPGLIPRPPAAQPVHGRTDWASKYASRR

KIT(D816H) = target: T16, KIT(D816H) (Homo sapiens, UniProt P10721, D816H); type: binding; details: read-out: Percent Control
T16 construct: purchased Eurofins DiscoverX KINOMEscan (scanMAX 468)

DAPK2 = target: T17, DAPK2 (Homo sapiens, UniProt Q9UIK4); type: binding; details: read-out: Percent Control
T17 construct: purchased Eurofins DiscoverX KINOMEscan (scanMAX 468)

PRKCI = target: T18, PRKCI (Homo sapiens, UniProt P41743); type: binding; details: read-out: Percent Control
T18 construct: purchased Eurofins DiscoverX KINOMEscan (scanMAX 468)

PIK3CA(H1047Y) = target: T19, PIK3CA(H1047Y) (Homo sapiens, UniProt P42336, H1047Y); type: binding; details: read-out: Percent Control
T19 construct: purchased Eurofins DiscoverX KINOMEscan (scanMAX 468)

LCK = target: T20, LCK (Homo sapiens, UniProt P06239); type: binding; details: read-out: Percent Control
T20 construct: purchased Eurofins DiscoverX KINOMEscan (scanMAX 468)

GSK3A = target: T21, GSK3A (Homo sapiens, UniProt P49840); type: binding; details: read-out: Percent Control
T21 construct: purchased Eurofins DiscoverX KINOMEscan (scanMAX 468)
T21 sequence (P49840 whole entry): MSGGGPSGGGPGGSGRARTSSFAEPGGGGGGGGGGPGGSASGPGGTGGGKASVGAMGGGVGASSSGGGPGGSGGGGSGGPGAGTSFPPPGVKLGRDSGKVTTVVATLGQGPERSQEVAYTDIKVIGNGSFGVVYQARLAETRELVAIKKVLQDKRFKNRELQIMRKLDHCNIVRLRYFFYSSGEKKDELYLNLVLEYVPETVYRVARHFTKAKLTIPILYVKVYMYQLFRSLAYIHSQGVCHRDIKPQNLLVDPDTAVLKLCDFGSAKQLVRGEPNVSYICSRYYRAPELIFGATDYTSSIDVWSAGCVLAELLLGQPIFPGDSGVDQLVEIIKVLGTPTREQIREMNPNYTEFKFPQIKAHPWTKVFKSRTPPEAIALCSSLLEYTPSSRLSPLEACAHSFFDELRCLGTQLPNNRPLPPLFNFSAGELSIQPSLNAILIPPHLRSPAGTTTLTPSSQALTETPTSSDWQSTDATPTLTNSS

PCTK1 = target: T22, PCTK1 (Homo sapiens, UniProt Q00536); type: binding; details: read-out: Percent Control
T22 construct: purchased Eurofins DiscoverX KINOMEscan (scanMAX 468)

[1] = target: T23, RSK2(Kin.Dom.2-C-terminal) (Homo sapiens, UniProt P51812); type: binding; details: read-out: Percent Control
T23 construct: RSK2(Kin.Dom.2-C-terminal); purchased Eurofins DiscoverX KINOMEscan (scanMAX 468)

CSK = target: T24, CSK (Homo sapiens, UniProt P41240); type: binding; details: read-out: Percent Control
T24 construct: purchased Eurofins DiscoverX KINOMEscan (scanMAX 468)

CSNK1G1 = target: T25, CSNK1G1 (Homo sapiens, UniProt Q9HCP0); type: binding; details: read-out: Percent Control
T25 construct: purchased Eurofins DiscoverX KINOMEscan (scanMAX 468)

ACVRL1 = target: T26, ACVRL1 (Homo sapiens, UniProt P37023); type: binding; details: read-out: Percent Control
T26 construct: purchased Eurofins DiscoverX KINOMEscan (scanMAX 468)

PIK3CD = target: T27, PIK3CD (Homo sapiens, UniProt O00329); type: binding; details: read-out: Percent Control
T27 construct: purchased Eurofins DiscoverX KINOMEscan (scanMAX 468)

BRAF(V600E) = target: T28, BRAF(V600E) (Homo sapiens, UniProt P15056, V600E); type: binding; details: read-out: Percent Control
T28 construct: purchased Eurofins DiscoverX KINOMEscan (scanMAX 468)

BRAF = target: T29, BRAF (Homo sapiens, UniProt P15056); type: binding; details: read-out: Percent Control
T29 construct: purchased Eurofins DiscoverX KINOMEscan (scanMAX 468)

EGFR(S752-I759del) = target: T30, EGFR(S752-I759del) (Homo sapiens, UniProt P00533, DEL752-759); type: binding; details: read-out: Percent Control
T30 construct: purchased Eurofins DiscoverX KINOMEscan (scanMAX 468)

[2] = target: T31, ABL1(F317L)-phosphorylated (Homo sapiens, UniProt P00519, F317L); type: binding; details: read-out: Percent Control
T31 construct: purchased Eurofins DiscoverX KINOMEscan (scanMAX 468)

LRRK2 = target: T32, LRRK2 (Homo sapiens, UniProt Q5S007); type: binding; details: read-out: Percent Control
T32 construct: purchased Eurofins DiscoverX KINOMEscan (scanMAX 468)

RAF1 = target: T33, RAF1 (Homo sapiens, UniProt P04049); type: binding; details: read-out: Percent Control
T33 construct: purchased Eurofins DiscoverX KINOMEscan (scanMAX 468)

ROCK1 = target: T34, ROCK1 (Homo sapiens, UniProt Q13464); type: binding; details: read-out: Percent Control
T34 construct: purchased Eurofins DiscoverX KINOMEscan (scanMAX 468)

PRP4 = target: T35, PRP4 (Homo sapiens, UniProt Q13523); type: binding; details: read-out: Percent Control
T35 construct: purchased Eurofins DiscoverX KINOMEscan (scanMAX 468)
T35 sequence (Q13523 whole entry): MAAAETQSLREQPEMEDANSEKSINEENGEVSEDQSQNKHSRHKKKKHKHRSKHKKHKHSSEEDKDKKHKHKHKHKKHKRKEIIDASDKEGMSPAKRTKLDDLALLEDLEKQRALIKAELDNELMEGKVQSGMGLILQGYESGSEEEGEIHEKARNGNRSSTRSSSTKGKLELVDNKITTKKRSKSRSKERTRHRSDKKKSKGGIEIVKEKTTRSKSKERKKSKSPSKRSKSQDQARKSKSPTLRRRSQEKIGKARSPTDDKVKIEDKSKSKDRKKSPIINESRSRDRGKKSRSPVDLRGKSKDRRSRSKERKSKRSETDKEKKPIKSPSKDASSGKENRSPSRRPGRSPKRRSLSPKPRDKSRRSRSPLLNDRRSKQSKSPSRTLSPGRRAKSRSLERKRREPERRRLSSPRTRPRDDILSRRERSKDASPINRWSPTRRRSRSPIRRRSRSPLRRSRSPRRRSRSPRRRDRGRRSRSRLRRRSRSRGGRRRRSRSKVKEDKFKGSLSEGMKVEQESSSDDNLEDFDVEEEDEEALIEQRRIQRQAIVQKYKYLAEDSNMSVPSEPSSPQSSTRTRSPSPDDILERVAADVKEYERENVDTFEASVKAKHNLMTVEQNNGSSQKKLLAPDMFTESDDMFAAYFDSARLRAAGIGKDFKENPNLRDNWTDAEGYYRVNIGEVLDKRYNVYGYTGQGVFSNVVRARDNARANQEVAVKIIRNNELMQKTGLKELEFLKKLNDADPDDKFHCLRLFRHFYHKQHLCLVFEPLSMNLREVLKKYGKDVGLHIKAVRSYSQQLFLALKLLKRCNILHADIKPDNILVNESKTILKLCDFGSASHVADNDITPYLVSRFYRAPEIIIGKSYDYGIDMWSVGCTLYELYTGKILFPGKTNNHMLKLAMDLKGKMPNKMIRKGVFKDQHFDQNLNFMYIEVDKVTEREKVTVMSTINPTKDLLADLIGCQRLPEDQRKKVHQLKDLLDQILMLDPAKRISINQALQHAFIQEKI

PKN1 = target: T36, PKN1 (Homo sapiens, UniProt Q16512); type: binding; details: read-out: Percent Control
T36 construct: purchased Eurofins DiscoverX KINOMEscan (scanMAX 468)

FLT3(ITD) = type: binding, human; details: 1 μM
CAMK4 = target: T37, CAMK4 (Homo sapiens, UniProt Q16566); type: binding; details: read-out: Percent Control
T37 construct: purchased Eurofins DiscoverX KINOMEscan (scanMAX 468)
T37 sequence (Q16566 whole entry): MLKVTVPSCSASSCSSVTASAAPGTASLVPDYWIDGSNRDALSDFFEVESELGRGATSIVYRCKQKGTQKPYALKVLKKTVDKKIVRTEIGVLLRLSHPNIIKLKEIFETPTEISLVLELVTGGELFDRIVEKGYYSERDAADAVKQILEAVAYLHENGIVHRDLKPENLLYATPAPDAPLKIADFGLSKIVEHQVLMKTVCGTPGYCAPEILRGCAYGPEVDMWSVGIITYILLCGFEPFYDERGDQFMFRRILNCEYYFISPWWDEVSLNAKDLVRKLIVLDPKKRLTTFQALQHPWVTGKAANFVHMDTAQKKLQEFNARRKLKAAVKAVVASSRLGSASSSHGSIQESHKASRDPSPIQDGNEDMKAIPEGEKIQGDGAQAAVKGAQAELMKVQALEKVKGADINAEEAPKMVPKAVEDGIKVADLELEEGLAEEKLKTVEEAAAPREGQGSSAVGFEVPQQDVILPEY

MAPKAPK2 = target: T38, MAPKAPK2 (Homo sapiens, UniProt P49137); type: binding; details: read-out: Percent Control
T38 construct: purchased Eurofins DiscoverX KINOMEscan (scanMAX 468)

SRPK2 = target: T39, SRPK2 (Homo sapiens, UniProt P78362); type: binding; details: read-out: Percent Control
T39 construct: purchased Eurofins DiscoverX KINOMEscan (scanMAX 468)

AURKA = target: T40, AURKA (Homo sapiens, UniProt O14965); type: binding; details: read-out: Percent Control
T40 construct: purchased Eurofins DiscoverX KINOMEscan (scanMAX 468)

JNK3 = target: T41, JNK3 (Homo sapiens, UniProt P53779); type: binding; details: read-out: Percent Control
T41 construct: purchased Eurofins DiscoverX KINOMEscan (scanMAX 468)

[3] = target: T42, ABL1(F317I)-phosphorylated (Homo sapiens, UniProt P00519, F317I); type: binding; details: read-out: Percent Control
T42 construct: purchased Eurofins DiscoverX KINOMEscan (scanMAX 468)

Cc1ccc(-n2cc(COc3cccc4cnc(Nc5cccc(Cl)c5)nc34)nn2)c([N+](=O)[O-])c1 [DB18]
remaining binding at 1 µM (SYK): 97% | remaining binding at 1 µM (RIPK4): 82% | remaining binding at 1 µM (FLT3(D835Y)): 29% | remaining binding at 1 µM (NDR2): 95% | remaining binding at 1 µM (DCAMKL1): 88% | remaining binding at 1 µM (MST1R): 100% | remaining binding at 1 µM (PIM2): 100% | remaining binding at 1 µM (PCTK3): 100% | remaining binding at 1 µM (EGFR(G719C)): 100% | remaining binding at 1 µM (PIP5K2C): 28% | remaining binding at 1 µM (MEK4): 100% | remaining binding at 1 µM (IRAK4): 100% | remaining binding at 1 µM (CDK8): 100% | remaining binding at 1 µM (PCTK2): 98% | remaining binding at 1 µM (ICK): 81% | remaining binding at 1 µM (KIT(D816H)): 100% | remaining binding at 1 µM (DAPK2): 100% | remaining binding at 1 µM (PRKCI): 96% | remaining binding at 1 µM (PIK3CA(H1047Y)): 96% | remaining binding at 1 µM (LCK): 100% | remaining binding at 1 µM (GSK3A): 100% | remaining binding at 1 µM (PCTK1): 94% | remaining binding at 1 µM [1]: 100% | remaining binding at 1 µM (CSK): 100% | remaining binding at 1 µM (CSNK1G1): 100% | remaining binding at 1 µM (ACVRL1): 93% | remaining binding at 1 µM (PIK3CD): 100% | remaining binding at 1 µM (BRAF(V600E)): 96% | remaining binding at 1 µM (BRAF): 93% | remaining binding at 1 µM (EGFR(S752-I759del)): 91% | remaining binding at 1 µM [2]: 100% | remaining binding at 1 µM (LRRK2): 100% | remaining binding at 1 µM (RAF1): 100% | remaining binding at 1 µM (ROCK1): 100% | remaining binding at 1 µM (PRP4): 100% | remaining binding at 1 µM (PKN1): 100% | Percent Control (FLT3(ITD)): 62 % Ctrl | remaining binding at 1 µM (CAMK4): 100% | remaining binding at 1 µM (MAPKAPK2): 100% | remaining binding at 1 µM (SRPK2): 87% | remaining binding at 1 µM (AURKA): 100% | remaining binding at 1 µM (JNK3): 95% | remaining binding at 1 µM [3]: 100%
